In patent US10232013B2, “Use of an antimicrobial peptide TP4 in treating a cancer” (Academia Sinica, priority 2016, dated 2019):
Marks after values point to notes of the source that are not given here. Where no end group is shown, it is not given here.

Tests used:
MCF7 cells = experiment: MTS cell viability assay, MCF7; format: cell-based, human; conditions: mean±SD
Experimental: (§1) Cell-lines used in this study were purchased from the Bioresource Collection and Research Center (BCRC) in and the cells were cultured by the standard cell culture procedures and conditions provided by the BCRC. MB231 (BCRC 60425), MB453 (BCRC 60429), and HDF cells were cultured as previously described by Ting et al. MCF7 […] cells were maintained in α-MEM medium (ThermoFisher Scientific) supplemented with 2 mM L-glutamine, 10% FBS, 0.1 mM non-essential amino acids, 1 mM sodium pyruvate, and antibiotics (100 U mL^−1 penicillin G and […] streptomycin). M10 (BCRC 60197) cells were maintained in α-MEM medium (ThermoFisher Scientific) supplemented with 10% FBS and antibiotics. With the exception of MB231 and MB453, all cells were cultured at 37° C. with 5% CO2. For the cell viability and transfection assay, 1×10^4 cells [5×10^3 M10 cells were seeded and cultured for 48 h to allow the cells sufficient time for attachment] were seeded into the wells of a 96-well plate and cultured overnight. For the transfection assays, cells were transfected with 0.1-0.4 μg FOSB/FOSAB expression plasmid (Origene Technology Inc.) and cell viability was determined after 72 h. The transfection efficiencies (number of cells expressing eGFP/all cells) of the MB231 transfection assays were determined by observing ten randomly selected fields (from three independent transfections) of control GFP plasmid transfections under an inverted microscope (Olympus, IX71) coupled to a digital camera (Olympus DP80), using an […] (LCPlanFI 20×/0.40 Ph1). CellSens standard software (Olympus) was used for image acquisition. During the drug treatment assay, inhibitors (PD98059, BAPTA-AM, and AlP II) were added 30 min prior to TP4, and cell viability was determined at indicated time-points. Transfection was performed using LipofectAMINE™ 3000 (ThermoFisher Scientific), according to the manufacturer's recommendations. Knock-down cells were generated by transducing MB231 cells with pre-synthesized FOSB (or control) shRNA lentiviral particles (Santa Cruz Biotechnology), and selecting puromycin-resistant cells in accordance with the manufacturer's standard protocol. MB231 or M10 cells stably expressing eGFP or mOrange2 were generated through transfection with peGFP-puromycin or pmOrange2-C1 plasmid, followed by puromycin (5 μg mL^−1) or G418 (500 μg mL^−1) selection as described above.
(§2) Cell viability was quantitatively analyzed using the CellTiter-Glo® Luminescent Cell Viability Assay kit (ATP assay) and CellTiter 96® AQueous Non-Radioactive Cell Proliferation Assay kit (MTS assay) (Promega) in accordance with the manufacturer's protocol. For MTS assay, 1×10^4 cells were seeded into the wells of a 96-well plate and cultured overnight [5×10^3 M10 cells were seeded and cultured for 48 h to enable sufficient well attachment]. Cells were subsequently treated with different doses of TP4 (2.5-20 μg mL^−1) and harvested at the indicated time-points (3-24 h). Reaction mixtures (20 μL: MTS+PMS, using a ratio 20:1) were directly added to the cells, and the plates were incubated for 3 h at 37° C. Absorbance at 490 nm is directly proportional to the number of living cells in culture and was measured using a photometer (SpectraMax® i3, Molecular Devices). ATP assay was performed as previously described by Ting et al. Lactate dehydrogenase (LDH) assays were performed by quantitatively measuring cell lysis with a Cytotoxicity Detection Kit^PLUS (LDH) (Roche) in accordance with the manufacturer's protocol. The LDH standard was purchased from Cayman Chemical. Briefly, 1×10^4 cells were seeded into the wells of a 96-well plate and cultured overnight. Culture media were replaced with fresh medium containing 1% FBS and cells were subsequently treated with different doses of TP4 (2.5-20 μg mL^−1). Supernatants were harvested at 3 h. […]

MB231 (MDA-MB231) cells = experiment: MTS cell viability assay, MB231; format: cell-based, human; conditions: mean±SD
Experimental: as §1, §2

FIHHIIGGLFSAGKAIHRLIRRRRR [TP4, tilapia piscidin 4]
Cellular toxicity (cell viability), MTS assay (MCF7 cells; MCF7, TP4 2.5 μg/mL, 3 h): 98.00 ± 6.05^a | Cellular toxicity (cell viability), MTS assay (MCF7 cells; MCF7, TP4 2.5 μg/mL, 6 h): 91.20 ± 6.51^b | Cellular toxicity (cell viability), MTS assay (MCF7 cells; MCF7, TP4 2.5 μg/mL, 12 h): 93.01 ± 10.60^b | Cellular toxicity (cell viability), MTS assay (MCF7 cells; MCF7, TP4 2.5 μg/mL, 24 h): 90.83 ± 5.30^b | Cellular toxicity (cell viability), MTS assay (MCF7 cells; MCF7, TP4 5.0 μg/mL, 3 h): 83.74 ± 6.10^d | Cellular toxicity (cell viability), MTS assay (MCF7 cells; MCF7, TP4 5.0 μg/mL, 6 h): 79.17 ± 12.06^d | Cellular toxicity (cell viability), MTS assay (MCF7 cells; MCF7, TP4 5.0 μg/mL, 12 h): 77.79 ± 7.73^d | Cellular toxicity (cell viability), MTS assay (MCF7 cells; MCF7, TP4 5.0 μg/mL, 24 h): 75.19 ± 11.28^d | Cellular toxicity (cell viability), MTS assay (MCF7 cells; MCF7, TP4 10.0 μg/mL, 3 h): 75.01 ± 11.15^d | Cellular toxicity (cell viability), MTS assay (MCF7 cells; MCF7, TP4 10.0 μg/mL, 6 h): 70.30 ± 12.26^d | Cellular toxicity (cell viability), MTS assay (MCF7 cells; MCF7, TP4 10.0 μg/mL, 12 h): 68.89 ± 6.54^d | Cellular toxicity (cell viability), MTS assay (MCF7 cells; MCF7, TP4 10.0 μg/mL, 24 h): 67.00 ± 10.90^d | Cellular toxicity (cell viability), MTS assay (MCF7 cells; MCF7, TP4 15.0 μg/mL, 3 h): 45.15 ± 9.89^d | Cellular toxicity (cell viability), MTS assay (MCF7 cells; MCF7, TP4 15.0 μg/mL, 6 h): 28.28 ± 6.29^d | Cellular toxicity (cell viability), MTS assay (MCF7 cells; MCF7, TP4 15.0 μg/mL, 12 h): 26.23 ± 6.08^d | Cellular toxicity (cell viability), MTS assay (MCF7 cells; MCF7, TP4 15.0 μg/mL, 24 h): 25.09 ± 3.83^d | Cellular toxicity (cell viability), MTS assay (MCF7 cells; MCF7, TP4 20.0 μg/mL, 3 h): 24.63 ± 3.80^d | Cellular toxicity (cell viability), MTS assay (MCF7 cells; MCF7, TP4 20.0 μg/mL, 6 h): 15.48 ± 2.33^d | Cellular toxicity (cell viability), MTS assay (MCF7 cells; MCF7, TP4 20.0 μg/mL, 12 h): 14.36 ± 2.10^d | Cellular toxicity (cell viability), MTS assay (MCF7 cells; MCF7, TP4 20.0 μg/mL, 24 h): 11.90 ± 3.39^d | Cellular toxicity (cell viability), MTS assay (MB231 (MDA-MB231) cells; MB231, TP4 2.5 μg/mL, 3 h): 95.34 ± 5.56^a | Cellular toxicity (cell viability), MTS assay (MB231 (MDA-MB231) cells; MB231, TP4 2.5 μg/mL, 6 h): 95.93 ± 8.86^a | Cellular toxicity (cell viability), MTS assay (MB231 (MDA-MB231) cells; MB231, TP4 2.5 μg/mL, 12 h): 87.60 ± 12.28^c | Cellular toxicity (cell viability), MTS assay (MB231 (MDA-MB231) cells; MB231, TP4 2.5 μg/mL, 24 h): 87.01 ± 9.69^c | Cellular toxicity (cell viability), MTS assay (MB231 (MDA-MB231) cells; MB231, TP4 5.0 μg/mL, 3 h): 90.55 ± 10.57^a | Cellular toxicity (cell viability), MTS assay (MB231 (MDA-MB231) cells; MB231, TP4 5.0 μg/mL, 6 h): 82.30 ± 6.40^d | Cellular toxicity (cell viability), MTS assay (MB231 (MDA-MB231) cells; MB231, TP4 5.0 μg/mL, 12 h): 79.00 ± 9.48^d | Cellular toxicity (cell viability), MTS assay (MB231 (MDA-MB231) cells; MB231, TP4 5.0 μg/mL, 24 h): 71.69 ± 6.84^d | Cellular toxicity (cell viability), MTS assay (MB231 (MDA-MB231) cells; MB231, TP4 10.0 μg/mL, 3 h): 75.01 ± 11.29^d | Cellular toxicity (cell viability), MTS assay (MB231 (MDA-MB231) cells; MB231, TP4 10.0 μg/mL, 6 h): 65.28 ± 6.61^d | Cellular toxicity (cell viability), MTS assay (MB231 (MDA-MB231) cells; MB231, TP4 10.0 μg/mL, 12 h): 61.63 ± 11.38^d | Cellular toxicity (cell viability), MTS assay (MB231 (MDA-MB231) cells; MB231, TP4 10.0 μg/mL, 24 h): 57.98 ± 6.62^d | Cellular toxicity (cell viability), MTS assay (MB231 (MDA-MB231) cells; MB231, TP4 15.0 μg/mL, 3 h): 52.48 ± 11.16^d | Cellular toxicity (cell viability), MTS assay (MB231 (MDA-MB231) cells; MB231, TP4 15.0 μg/mL, 6 h): 42.59 ± 10.14^d | Cellular toxicity (cell viability), MTS assay (MB231 (MDA-MB231) cells; MB231, TP4 15.0 μg/mL, 12 h): 38.31 ± 7.26^d | Cellular toxicity (cell viability), MTS assay (MB231 (MDA-MB231) cells; MB231, TP4 15.0 μg/mL, 24 h): 29.78 ± 4.79^d | Cellular toxicity (cell viability), MTS assay (MB231 (MDA-MB231) cells; MB231, TP4 20.0 μg/mL, 3 h): 30.57 ± 4.64^d | Cellular toxicity (cell viability), MTS assay (MB231 (MDA-MB231) cells; MB231, TP4 20.0 μg/mL, 6 h): 26.65 ± 7.16^d | Cellular toxicity (cell viability), MTS assay (MB231 (MDA-MB231) cells; MB231, TP4 20.0 μg/mL, 12 h): 19.31 ± 5.73^d | Cellular toxicity (cell viability), MTS assay (MB231 (MDA-MB231) cells; MB231, TP4 20.0 μg/mL, 24 h): 16.19 ± 4.15^d
